Reference: US20040053234A1, “Polynucletides that control delta-6 desaturase genes and methods for identifying compounds for modulating delta-6 desaturase” (priority 2000, published 2004)

How the values were obtained:
[1] = biological target: rD6D-1 (without V5/6xHis tags) (Rattus norvegicus, UniProt Q9Z122); test: Inhibition of rD6D-1 in spheroplasts of transformed Saccharomyces cerevisiae; conditions: [1-14C]-linoleic acid
Description: Saccharomyces cerevisiae transformed with pYr5003.1 without V5/6×His tags or pTh5002.1 with V5/6×His tags were grown in modified SC-U medium with 2% galactose to induce the expression of the gene that encodes the fatty acid delta-6-desaturase. After 16 h incubation, cells were centrifuged at 2060×g for 5 min at 4° C., washed once with distilled water and centrifuged again. The volume and weight of the cell pellet were measured Cells were suspended (1:2 w/v) in 0.1 M Tris.SO4 (pH 9.4), 10 mM DTT and incubated at 30° C. After 10 min incubation, the cell pellet was obtained by centrifugation, washed once (1:20 w/v) with 1.2 M sorbitol and suspended (1:1 w/v) in 1.2 M sorbitol, 20 mM phosphate buffer (pH 7.4) as described elsewhere (Daum et al., 1982, J. Biol. Chem., 257: 13028-13033). The 15,800× g (1 min) supernatant of Lyticase was added to the cell suspension at a concentration of 2000 U/ml and the suspension incubated at 30° C. with 50 rpm shaking. Conversion to spheroplasts was checked after 40 min incubation by diluting the suspension with distilled water followed by observation under the microscope (Schatz G. and Kovac L., 1974, Methods in Enzymology, 31A: 627-632).
Spheroplasts were harvested by centrifugation at 2060×g for 5 min at 4° C. and washed once with 1.2 M sorbitol. Spheroplasts were suspended in modified SC-U medium with 1% tergitol, 1.2 M sorbitol and 2% galactose to maintain the induction conditions and to give an OD600 reading of approximately 2.5-3.0. A 10 ml aliquot of the spheroplast suspension was transferred to a 125 ml Erlenmeyer flask and incubated with 200 μL of n-propyl gallate in ethanol (final concentration in the culture ranged between 0.7 and 14.1 mM) at 30° C. in an orbital incubator set at 270 rpm After 30 min incubation 1 μCi of [1-^14C]-alpha-linolenic or [1-^14C]-linoleic acids were added to the cultures to a final concentration of 2 μM and further incubated for 120 min. At this time point, turbidity readings at OD600 were taken, spheroplasts were harvested by centrifugation and washed with Tris buffer (100 mM, pH 8.0) containing 0.1%/o BSA. Total lipids were extracted as described below.
The radioactivity from aliquots of the supernatant, spheroplasts and whole cells was determined by liquid scintillation counting using a LS6500-Scintillation System (Beckman) prior to the lipid extraction. Total lipids were extracted from cells or spheroplasts with chloroform/methanol (2:1 v/v) according to the method of Folch et al., 1957, J. Biol. Chem., 226: 497-509. The total lipid extracts were methylated using boron trifluoride in methanol at 90° C. for 30 min.
The desaturase activity was determined by measuring the conversion of radiolabelled linoleic acid to gammna-linolenic acid (18:2n-6 to 18:3n-6) and alpha-linolenic acid to stearidonic acid (18:3n-3 to 18:4n-3). The percent inhibition was calculated as described elsewhere (Kawashima et al., 1996, Biosci. Biotech. Biochem., 60:1672-1676):
Inhibition % =(activity without the inhibitor−activity with the inhibitor)/activity without the inhibitor

delta-6-desaturase = test: Inhibition of delta-6-desaturase in rat liver microsomes incubated with [1-14C]-dihomogammalinolenic acid; type: biochemical; conditions: for % of inhibition: substrate [1-14C]-dihomogammalinolenic acid
Description: Wistar rats under light halothane (15% in mineral oil) anesthesia were sacrificed by exsanguination during periods of high enzyme activity. Livers are immediately rinsed with cold 0.9% NaCl solution, weighed and minced with scissors. All procedures are performed at 4° C. unless specified otherwise. Livers are homogenized in a solution (1:3 w/v) containing 0.25 M sucrose, 62 mM potassium phosphate buffer (pH 7.0), 0.15 M KCl, 1.5 mM N-acetylcysteine, 5 mM MgCl2, and 0.1 mM EDTA using 4 strokes of a Potter-Elvehjem tissue homogenizer. The homogenate is centrifuged at 10,400×g for 20 min to eliminate mitochondria and cellular debris. The supernatant is filtered through a 3-layer cheesecloth and centrifuged at 105,000×g for 60 min. The microsomal pellet is gently resuspended in the same homogenization solution with a small glass/teflon homogenizer and stored at −70° C. The absence of mitochondrial contamination is enzymatically assessed. The protein concentration is measured using bovine serum albumin as the standard.
Reactions are started by adding 2 mg of microsomal protein to pre-incubated tubes containing 0.20 μCi of the substrate fatty acid (DGLA) at a final concentration of 33.3 μM in 1.5 ml of homogenization solution, containing NaF (42 mM), niacinamide (0.33 mM), ATP (1.57 mM), NADH (1.0 mM), coenzyme A (0.09 mM) and a range of concentrations of the enzyme modulators. N-propyl gallate was added to the incubation medium to a final concentration of 0.02-0.32 mM. The tubes are vortexed vigorously and after 15 min incubation in a shaking water bath (37° C.), the reactions are stopped and fatty acids are analyzed as described in herein. Alternatively, fatty acid methyl esters are analyzed by capillary column gas chromatography (GC).

fatty acid desaturases = conditions: Kawashima et al., 1996; cited from earlier work

Chain of rD6D-1 (without V5/6xHis tags) (Q9Z122 whole entry): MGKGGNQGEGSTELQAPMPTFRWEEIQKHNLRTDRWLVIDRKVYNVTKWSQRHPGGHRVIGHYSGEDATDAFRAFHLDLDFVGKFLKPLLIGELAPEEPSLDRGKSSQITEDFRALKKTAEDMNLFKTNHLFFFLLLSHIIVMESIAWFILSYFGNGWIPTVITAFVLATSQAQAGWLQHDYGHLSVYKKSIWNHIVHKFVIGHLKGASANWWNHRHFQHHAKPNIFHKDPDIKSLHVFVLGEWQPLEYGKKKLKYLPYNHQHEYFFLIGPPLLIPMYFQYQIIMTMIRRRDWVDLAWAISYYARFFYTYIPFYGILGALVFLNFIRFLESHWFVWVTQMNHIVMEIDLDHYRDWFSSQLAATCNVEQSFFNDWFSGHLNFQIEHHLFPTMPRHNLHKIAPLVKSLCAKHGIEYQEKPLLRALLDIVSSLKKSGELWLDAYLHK

**Q.** Which “% of inhibition” value ([1]; inhibitor 0.7 mM) does the source give for `CCCOC(=O)c1cc(O)c(O)c(O)c1` [n-propyl gallate, Propyl ester of 3,4,5-trihydroxybenzoic acid] here?
**A.** 8.9%

**Q.** What about the “% of inhibition” value ([1]; inhibitor 1.4 mM) of the same compound?
**A.** 39.2%

**Q.** What about the “% of inhibition” value ([1]; inhibitor 2.8 mM) of the same compound?
**A.** 77.4%

**Q.** What about the “% of inhibition” value ([1]; inhibitor 14.1 mM) of the same compound?
**A.** 100%

**Q.** And the “% of inhibition” value (delta-6-desaturase; inhibitor 0.02 mM)?
**A.** 62.9%

**Q.** What about the “% of inhibition” value (delta-6-desaturase; inhibitor 0.04 mM) of the same compound?
**A.** 74.9%

**Q.** And the “% of inhibition” value (delta-6-desaturase; inhibitor 0.08 mM)?
**A.** 86.4%

**Q.** And the “% of inhibition” value (delta-6-desaturase; inhibitor 0.16 mM)?
**A.** 88.7%

**Q.** What about the “% of inhibition” value (delta-6-desaturase; inhibitor 0.32 mM) of the same compound?
**A.** 100.0%

**Q.** And the “Inhibitor concentration at which a plateau of inhibition was reached” value (delta-6-desaturase; rat liver microsomes, Table 20)?
**A.** 0.08 to 0.32 mM

**Q.** And the Mode of inhibition (fatty acid desaturases)?
**A.** noncompetitive inhibitor
